Read-outs that look alike come from different tables or passages of the source.
Experiments:
Caco-2 cells = test: Clonogenic assay; format: cell-based, human; settings: 4, 8, or 16 μM/L, 6 h exposure
Description: Caco-2 cells were seeded into a 6-well plate at a density of 1 × 10^3 cells per well and incubated overnight. Then, the medium was replaced, and CA8 was added at the prescribed concentrations (4, 8, or 16 μM/L). After 6 h, the drug-containing medium was replaced with RPMI 1640 medium.
Caco-2 cells in 6-well plates were incubated for 1–2 weeks until the appearance of the colonies, followed by staining with crystal violet and incubation for 1 h at room temperature. After staining, images were captured accordingly.

[1] = Pharmacokinetics evaluation after gavage; format: in vivo, Sprague Dawley (SD) rats; settings: SD rats
Description: After the evaluation of the safety of CA8, 10 male Sprague Dawley (SD) rats were randomly divided into the CA8 and CU groups for the pharmacokinetic test ([Ye et al., 2020]). The rats were subjected to 1 week of adaptation and were fasted for 6 h before the experiment. CA8 (50 mg kg^−1) and CU (50 mg kg^−1) were administered via gavage. Blood samples were collected at 0.03, 0.08, 0.16, 0.25, 0.5, 1, 2, 4, 8 and 12 h and centrifuged at 5,000 rpm for 3 min to obtain the plasma. A mixture of ethyl acetate and methanol was then added to precipitate the proteins and separate the CA8 and CU from the plasma. The samples were then analyzed using HPLC.

KM mice = test: Acute toxicity experiment; format: in vivo; parameters: ALT / AST / ALP / CREA / UA / UREA: unit not given here; settings: for tolerated dose: male, KM, 8 days; for ALP / ALT / AST / CREA / UA / UREA: serum, KM mice, Mean ± SE, n = 3
Description: All in vivo experimental protocols were approved by the animal care committee of the Southwest Medical University and conducted in strict accordance with the laboratory animal care and use of the adopted guidelines. […] Twenty-one male KM mice were obtained from the Animal Center of Southwest Medical University and subjected to 1 week of acclimatization before the experiment. Then, the mice were randomly divided into the different groups. CA8 was administered via intraperitoneal injection and oral administration to assess its safety. The oral and injection doses were 5, 50, and 300 mg/kg and 2, 10, and 50 mg/kg, respectively. The body weight of all animals was recorded every day, and their blood samples were collected to analyze relevant biochemical indicators on the 8th day of the experiment. The heart, liver, and kidney tissues of the mice were collected, embedded in paraffin, cut into slices, stained with hematoxylin and eosin (HE), and observed under a light microscope to determine potential pathological changes.

[2] = test system: colon cancer cells Caco-2; test: MTT antiproliferative assay, Caco-2; format: cell-based, human; settings: for SI Caco2: logarithm of ratio IC50 LO2 / IC50 cancer cells; for IC50: Homo sapiens, read-out: IC50 Caco2
Description: The human cancer cell lines A549, HepG2, MCF-7, Caco-2, and HeLa and the normal human liver cell line LO2 were all obtained from Shanghai Cell Bank of China. All cells were cultured in RPMI 1640 or DMEM supplemented with 10% fetal bovine serum, 100 U/mL penicillin, and 100 μg/mL streptomycin and incubated at 37°C under 5% CO2 (HEPA incubator class100 Thermo company). The medium was replaced three times a week. Cells used in all were in the exponential growth phase.
The cell inhibition rate was evaluated using the MTT assay. Briefly, cells were seeded in a 96-well plate at a density of 3–4 × 10^3 cells per well and incubated at 37°C for 24 h. The MCACs to be tested were dissolved in dimethyl sulfoxide (DMSO, Merck, Germany) and diluted to five concentrations (3.75, 7.5, 15, 30, 60 μM/L) with RPMI 1640 medium, with each dose analyzed in quadruplicate. The concentration of DMSO was always maintained below 1‰, a concentration that is nontoxic to cells. After incubation for 24 or 48 h, MTT reagent (5 mg/mL) was added to each well and the samples were incubated for 3 h at 37°C in the dark. The absorbance of formazan crystals dissolved in 150 µL of DMSO was measured at 570 nm using a microplate reader to identify the cytotoxic effect of the analogues.

COc1cc(/C=C2\CN(C(C)C)C/C(=C\c3cc(OC)c(O)c(OC)c3)C2=O)cc(OC)c1O [CA8]
Caco-2 colony formation (Caco-2 cells): showed Caco-2 colony formation inhibition
AUC (0-t) / bioavailability relative to CU ([1]; oral): 6.23 fold
MRT (0-t) / mean residence time relative to CU ([1]; oral): 3.35 fold
biological half-life relative to CU ([1]; oral): 2.38 fold
time after dosing until cleared from / still detected in plasma ([1]; oral 50 mg kg^−1): > 8 h
AUC(0-t) ([1]; oral (gavage) 50 mg kg^−1): 222,562.75 μg/L*min
CLz ([1]; oral (gavage) 50 mg kg^−1): 11.4 L/h/kg
Vz ([1]; oral (gavage) 50 mg kg^−1): 49.53 L/kg
Cmax ([1]; male, Sprague Dawley, rat, plasma, oral (gavage) 50 mg kg^−1): 1.36 µg/mL
MRT last ([1]; male, Sprague Dawley, rat, plasma, oral (gavage) 50 mg kg^−1, read-out: MRT(0-t) (converted)): 3.02 h
Tmax ([1]; male, Sprague Dawley, rat, plasma, oral (gavage) 50 mg kg^−1, read-out: Tmax (converted)): 0.167 h
half-life ([1]; male, Sprague Dawley, rat, plasma, oral (gavage) 50 mg kg^−1, read-out: t1/2z): 2.98 h
liver and kidney histopathology (KM mice; different doses, HE staining): no significant pathological damage
tolerated dose (KM mice; mouse, in vivo, ip): ≤ 50 mg/kg
tolerated dose (KM mice; mouse, in vivo, po): up to 300 mg/kg
morbidity, death, behavior (KM mice; mouse, in vivo): No morbidities and deaths occurred
ALP (KM mice; single injection dose 2 mg/kg): 220.33 ± 47.16
ALT (KM mice; single injection dose 2 mg/kg): 59.77 ± 3.00
AST (KM mice; single injection dose 2 mg/kg): 257.50 ± 114.60
CREA (KM mice; single injection dose 2 mg/kg): 17.13 ± 3.30
UA (KM mice; single injection dose 2 mg/kg): 171.93 ± 1.10
UREA (KM mice; single injection dose 2 mg/kg): 6.84 ± 0.29
ALP (KM mice; single injection dose 10 mg/kg): 175.93 ± 95.23
ALT (KM mice; single injection dose 10 mg/kg): 54.87 ± 3.50
AST (KM mice; single injection dose 10 mg/kg): 100.13 ± 28.26
CREA (KM mice; single injection dose 10 mg/kg): 11.60 ± 1.60
UA (KM mice; single injection dose 10 mg/kg): 47.57 ± 14.59
UREA (KM mice; single injection dose 10 mg/kg): 6.84 ± 0.94
ALP (KM mice; single injection dose 50 mg/kg): 226.47 ± 65.98
ALT (KM mice; single injection dose 50 mg/kg): 48.27 ± 2.77
AST (KM mice; single injection dose 50 mg/kg): 141.83 ± 50.47
CREA (KM mice; single injection dose 50 mg/kg): 12.13 ± 1.12
UA (KM mice; single injection dose 50 mg/kg): 55.77 ± 13.47
UREA (KM mice; single injection dose 50 mg/kg): 9.19 ± 1.02
ALP (KM mice; single oral dose 5 mg/kg): 208.57 ± 19.55
ALT (KM mice; single oral dose 5 mg/kg): 49.70 ± 5.25
AST (KM mice; single oral dose 5 mg/kg): 209.40 ± 69.21
CREA (KM mice; single oral dose 5 mg/kg): 10.34 ± 0.87
UA (KM mice; single oral dose 5 mg/kg): 72.27 ± 18.54
UREA (KM mice; single oral dose 5 mg/kg): 6.70 ± 0.12
ALP (KM mice; single oral dose 50 mg/kg): 299.77 ± 72.56
ALT (KM mice; single oral dose 50 mg/kg): 61.30 ± 1.30
AST (KM mice; single oral dose 50 mg/kg): 269.23 ± 67.81
CREA (KM mice; single oral dose 50 mg/kg): 12.50 ± 2.78
UA (KM mice; single oral dose 50 mg/kg): 124.17 ± 19.83
UREA (KM mice; single oral dose 50 mg/kg): 6.53 ± 0.65
ALP (KM mice; single oral dose 300 mg/kg): 266.97 ± 26.38
ALT (KM mice; single oral dose 300 mg/kg): 44.63 ± 11.95
AST (KM mice; single oral dose 300 mg/kg): 277.57 ± 160.53
CREA (KM mice; single oral dose 300 mg/kg): 12.90 ± 1.61
UA (KM mice; single oral dose 300 mg/kg): 128.03 ± 33.61
UREA (KM mice; single oral dose 300 mg/kg): 7.80 ± 1.27
blood parameters ALT, AST, ALP, CREA, UA, UREA vs control (KM mice; single oral and injection doses): no significant difference
SI Caco2 ([2]; 24 h): 0.02
cytotoxicity on Caco-2 cells compared with CU ([2]; 48 h): 19.2 times
SI Caco2 ([2]; 48 h): 0.07
IC50 ([2]; Caco-2, 24 h): 4.06 ± 0.89 µM
IC50 ([2]; Caco-2, 48 h): 1.71 ± 0.06 µM
